Test results reported in patent US12325646B2, “Fertigation water treatment” (UNIVERSITY OF GUELPH, priority 2019, dated 2025).
≈ marks a conversion by molar mass, not a printed value. Where “and” joins values, the source holds several entries; their conditions need not be identical. Equal values may be shown once. Entries after “also recorded” stand apart in the source; their conditions may differ. Read-outs that look alike come from different tables or passages of the source.

Tests used:
[1] = Electrochemical treatment of chemical standards in batch cell (DSA or BDD anodes); type: physicochemical; set-up: reduction of compound in solution: concentration or dose not given beside the values; settings: for NPOC decrease / TN decrease: 2.27 mA/cm^2, up to 6-minute contact time, batch cell, 20 mg/L chloride
Experimental: Initial water treatment was performed by treating the solution by batch cell using the DSA and BDD anodes, as well as stainless steel (SS) cathodes. The experiment used a 2 L beaker and filled the beaker with 1.8 L of deionized water and dissolved the chemical standards glyphosate (45521, Sigma-Aldrich, USA) or paclobutrazol (46046, Sigma-Aldrich, USA) for separate treatments. The solution was constantly mixed using a magnetic stirrer (220T, Fisher Scientific, Canada) and bar during treatment with chemical standards. Samples containing glyphosate and paclobutrazol standards were submitted to the Agriculture and Food Laboratory (University of Guelph) to quantify samples using LC-MS/MS. The mean quantifiable limit for the analytical method was 8 μg/L for glyphosate, AMPA, and paclobutrazol. The non-purgeable organic carbon (NPOC) and total nitrogen (TN) of the solution were determined using a Shimadzu TOC-Vpn & TNM-1 analyzer. A calibration curve (R^2=0.99) was produced before performing the sample analysis using TOC and TN standards.
The degradation of both glyphosate (8.5 mg/L) and paclobutrazol (12 mg/L) was conducted with the use of electrochemical systems for a direct comparison on their efficacies in a batch cell configuration. […] The NPOC and TN had larger decreases between the 3 and 6-minute contact time with the DSA electrodes for glyphosate, while the changes were more subtle using BDD electrodes.

Lemna minor [2] = test: Lemna minor bioassay (dose-response, 7-day growth); type: in vivo; settings: for EC50: 168 h, read-out: EC50 dose from dose-response analysis of Lemna minor growth
From the text: A sterile culture of Lemna minor was obtained from the laboratory of Dr. Ryan Prosser (University of Guelph, School of Environmental Science). The culture was transferred to a 1 L Erlenmeyer flask containing a ½ strength Hoagland solution. The cultures were transferred to a growth chamber and were left for a growing period of 7 days. After the growth period, the Erlenmeyer flasks were brought to the lab to use the healthy plants for bioassay and water treatment experiments.
The temperature and humidity sensors were built in house by the Controlled Environment Systems Research Facility (CESRF) at the University of Guelph. The growth chamber conditions for humidity and temperature were recorded using an Acer Aspire 7750 laptop (P7YEO, Acer, Taiwan) and using the Termite software for data logging (version 3.4). The temperature was maintained at 25.68±0.02° C. and the relative humidity was 38.34±0.05%. Lumigrow pro 325 LED lights (LU60001, Lumigrow, USA) were used at a 80:10:10 ratio of Red:Blue:White as overhead lighting for plants (FIGS. 38A & 38B). Furthermore, a grid system inside the growth chamber with 36 grid boxes were used to place Erlenmeyer flasks in a completely randomized design (FIG. 38C). Each ‘grid’ was measured for photosynthetically active radiation (PAR) using a modular spectrometer (USB2000+, Ocean Optics Inc., USA). This allowed to account for random differences attributed to light intensity within the growth chamber. A heat map is generated with this information and in the middle of the ‘grid box’ there was a maximum intensity of […] (FIG. 39).
The analysis of dose-response curves for affecting the growth of Lemna minor was determined using the ‘drc’ package (v. 3.0-1, Christian Ritz, 2016) in the statistical program RStudio (v. 1.0.153, RStudio Inc., USA). The program was used to determine the EC 50 for each measured parameter for plant health and reproduction of the number of plants, number of fronds, and the dry weights of plants contained in each flask.
All solutions were treated with the four different water treatment methods and 75 mL of effluent solution was collected and added in 250 mL Erlenmeyer flasks. Negative control samples only contained 75 mL of deionized water, while all other treatments (positive control, Ozone, AOP, DSA, and BDD) contained 75 mL of the treated and non-treated solution. In a separate 3-litre beaker, a full-strength Hoagland solution was prepared and mixed with a magnetic stirrer (220T, Fisher Scientific, Canada). For each of the Erlenmeyer flasks containing the treated solutions, 75 mL of the Hoagland solution was added into each flask. […] Lemna minor that were previously cultured and acclimated to the ‘Grid box’ were then added to each flask. Two Lemna minor plants with three fronds each were added to flasks for the experiment. All 5 treatments contained 3 Erlenmeyer flasks giving a total of […] and the experiment was performed in triplicate. All of the flasks were placed at random inside the growth chamber within each grid and recorded their location. The pH and electrical conductivity of the solutions were also measured after the 7-day growth period.
Significant differences were only observed at the concentration of 15 mg/L of glyphosate for the final number of fronds and the dry weight of plants (FIGS. 41A & 41B). […] Noticeable differences such as the number of plants, lighter colour of fronds, and spindly roots can be visualized in comparison with the control (FIG. 42A) to the presence of 15 mg/L of glyphosate (FIG. 42B).

Lemna minor [3] = test: Water treatment of commercial pesticide solutions in the EFC followed by Lemna minor growth test; type: in vivo
[4] = BDD electrodes, 2.27 mA/cm^2, 6-minute contact time, LC-MS/MS
[5] = DSA electrodes, 2.27 mA/cm^2, 6-minute contact time, LC-MS/MS

Row | reduction of compound in solution [1, 5] | concentration with significant differences for all measured parameters in the health of Lemna minor (Lemna minor [2]; Lemna minor, in vivo, 7 days) [ng/mL] | SMILES | reduction of compound in solution [1, 4] | NPOC decrease ([1]; BDD electrodes) | TN decrease ([1]; BDD electrodes) | NPOC decrease ([1]; BDD electrodes, listed as Glyphosate) [%] | level remaining in solution after treatment (below detection limit) [1, 5] [ng/mL] | NPOC decrease ([1]; DSA electrodes) | TN decrease ([1]; DSA electrodes) | concentration with significant differences in final number of fronds and dry weight of plants (Lemna minor [2]; Glyfos, 7 days growth) [ng/mL] | EC50 (Lemna minor [2]; Lemna minor) [µg/mL] | concentration remaining after treatment, inferred from plant growth (Lemna minor [3]; Roundup, 7 mg/L glyphosate, DSA electrodes, 2.27 mA/cm^2, 1-minute contact time) | increase of AMPA in glyphosate solution ([1]; BDD electrodes, 2.27 mA/cm^2, 0 to 6-minute contact time) [mg/L] | AMPA concentration after treatment of glyphosate solution ([1]; BDD electrodes, 2.27 mA/cm^2, 6 minutes, increased from 0.009) [mg/L] | EC50 (Lemna minor [2]; Lemna minor, 7 days in growth chamber, glyphosate as Glyfos, paclobutrazol as Bonzi, drc package) [µg/mL] | LOEC levels (Lemna minor [2]; Lemna minor, in vivo, 7 days) [mg/L] | effect on plant physiological and reproductive health parameters vs control (Lemna minor [2]; in vivo) | concentration remaining after treatment, inferred from plant growth parameters (Lemna minor [3]; Bonzi, 3 mg/L paclobutrazol, BDD electrodes, recirculated 3 passes, 18 minutes total contact)
1 | – | – | O=C(O)CNCP(=O)(O)O [glyphosate, N-(phosphonomethyl)glycine] | 72.47% and 72% | 19.73% | 32.61% and 32% | 20 | < 8 | 16.18% and 16% | 85.97% and 86% | 15000 | ~9 (≈ 53.2 µM) | lower than 2.5 mg/L | – | – | – | – | – | –
2 | – | – | NCP(=O)(O)O [AMPA, aminomethylphosphonic acid] | – | – | – | – | – | – | – | – | – | – | 0.10 | 0.11 | – | – | – | –
3 | 28.29% and 28% | 50 | CC(C)(C)[C@@H](O)[C@@H](Cc1ccc(Cl)cc1)n1cncn1 (racemic) [paclobutrazol] | 80.94% and 81% | 18.41% and 18% | 22.58% and 23% | – | – | unaffected; also recorded: no significant effect | 7.12% and 7% | – | – | – | – | – | 0.01 (≈ 0.034 µM) | 0.01 | Significant decreases were observed for all tested concentrations | lower than 0.05 mg/L
